In article PMC4546618, “Casitas B-Lineage Lymphoma RING Domain Inhibitors Protect Mice against High-Fat Diet-Induced Obesity and Insulin Resistance” (PLoS ONE, 2015):
*1 amine or outer side, *2 acyl side, *3 side chain or, on linkers, in order; H or OH if unused. Where a SMILES comes first, the peptide text is derived from it. [ ]: non-standard residue; d: D form. Phe(4-NO2) = N[C@@H](Cc1ccc([N+](=O)[O-])cc1)C(=O)O; Phe(4-N3) = [N-]=[N+]=Nc1ccc(C[C@H](N)C(=O)O)cc1; X2 = CC(=O)CN(CCCC[C@H](N[*:1])C(=O)[*:2])C(C)=O; Phe(4-CF3) = N[C@@H](Cc1ccc(C(F)(F)F)cc1)C(=O)O; Pro(trans-4-F) = O=C(O)[C@@H]1C[C@@H](F)CN1; X1 = CC(=O)N(O)CCCC[C@H](N[*:1])C(=O)[*:2]; Phe(4-NH2) = Nc1ccc(C[C@H](N)C(=O)O)cc1; Phe(3-F) = N[C@@H](Cc1cccc(F)c1)C(=O)O; Phe(3-Me) = Cc1cccc(C[C@H](N)C(=O)O)c1; Phe(4-F) = N[C@@H](Cc1ccc(F)cc1)C(=O)O; Phe(4-Me) = Cc1ccc(C[C@H](N)C(=O)O)cc1; Phe(2-F) = N[C@@H](Cc1ccccc1F)C(=O)O; Phe(2-Me) = Cc1ccccc1C[C@H](N)C(=O)O; Cha = N[C@@H](CC1CCCCC1)C(=O)O; ΔPro = O=C(O)[C@@H]1C=CCN1; Pip = O=C(O)[C@@H]1CCCCN1; Thz = O=C(O)[C@@H]1CSCN1; Aze = O=C(O)[C@@H]1CCN1

Biological target: T1, Cbl (RING) protein (Homo sapiens, UniProt P22681)
T1 construct: including the linker and RING domain (codon 358–457); GST (Glutathione S-Transferase); made in house
T1 sequence (P22681 358-457): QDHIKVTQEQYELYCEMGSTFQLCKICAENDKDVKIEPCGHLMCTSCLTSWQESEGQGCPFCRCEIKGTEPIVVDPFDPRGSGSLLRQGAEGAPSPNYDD
Assay: Fluorescence polarization (FP) assay, competition with FITC-βA-PFKPP-NH2 probe
Format: binding
Conditions: probe FITC-βA-PFKPP-NH2 100 nmol/L, Cbl (RING) protein 3 μmol/L, PBS pH 7.4
Experimental: Peptides and peptide mimetics were purchased from MitenChem (China) with a purity ≥ 98%. Concentrations values of reconstituted peptides were determined by amino acid analysis at the protein core facility (Chengdu Medical College). The recombinant Cbl protein was produced by the Chengdu Medical College Protein Core Facility and was described previously. The c-Cbl (RING) protein, including the linker and RING domain (codon 358–457), was tagged with Glutathione S-Transferase (GST) and purified with GSH-Sepharose (Shanghai Biopharma).
The FP assay was developed and validated previously. Briefly, fluorescein-labeled probe (FITC-βA-PFKPP-NH2, 100 nmol/L) and Cbl (RING) protein (3 μmol/L) were mixed and diluted to the final concentration using 0.01% Triton X-100 in PBS (pH = 7.4). Then, 19 μl of this master mix was loaded to each reaction well. The peptides or peptide mimetics were then loaded to the designated wells (1 μl, 10 μmol/L– 0.078 μmol/L, half-fold dilutions). The total fluorescence and polarization values were measured at an excitation wavelength of 485 nm and an emission wavelength of 538 nm using a ZS-2 plate reader. The data was fitted, and the ΔmP, Kd, and Ki values were estimated, using SigmaPlot 11.0.

Ki [µM]	SMILES
125 ± 12.6	CC(=O)N1CCC[C@H]1C(=O)N[C@@H](CC1CCCCC1)C(=O)N[C@@H](CCCCN)C(=O)N1CCC[C@H]1C(=O)N1CCC[C@H]1C(N)=O [Peptide 5, Ac-P(c)KPP-NH2] (Ac-P[Cha]KPP-NH2)
10.2 ± 1.5	CC(=O)N1CCC[C@H]1C(=O)N[C@@H](Cc1ccccc1C)C(=O)N[C@@H](CCCCN)C(=O)N1CCC[C@H]1C(=O)N1CCC[C@H]1C(N)=O [Peptide 6, Ac-P(d)KPP-NH2] (Ac-P[Phe(2-Me)]KPP-NH2)
4.5 ± 1	CC(=O)N1CCC[C@H]1C(=O)N[C@@H](Cc1cccc(C)c1)C(=O)N[C@@H](CCCCN)C(=O)N1CCC[C@H]1C(=O)N1CCC[C@H]1C(N)=O [Peptide 7, Ac-P(e)KPP-NH2] (Ac-P[Phe(3-Me)]KPP-NH2)
5.4 ± 2.2	CC(=O)N1CCC[C@H]1C(=O)N[C@@H](Cc1ccc(C)cc1)C(=O)N[C@@H](CCCCN)C(=O)N1CCC[C@H]1C(=O)N1CCC[C@H]1C(N)=O [Peptide 8, Ac-P(f)KPP-NH2] (Ac-P[Phe(4-Me)]KPP-NH2)
3.5 ± 0.6	CC(=O)N1CCC[C@H]1C(=O)N[C@@H](Cc1ccccc1F)C(=O)N[C@@H](CCCCN)C(=O)N1CCC[C@H]1C(=O)N1CCC[C@H]1C(N)=O [Peptide 9, Ac-P(g)KPP-NH2] (Ac-P[Phe(2-F)]KPP-NH2)
2.4 ± 0.5	CC(=O)N1CCC[C@H]1C(=O)N[C@@H](Cc1ccc(F)cc1)C(=O)N[C@@H](CCCCN)C(=O)N1CCC[C@H]1C(=O)N1CCC[C@H]1C(N)=O [Peptide 11, Ac-P(i)KPP-NH2] (Ac-P[Phe(4-F)]KPP-NH2)
4.5 ± 0.8	CC(=O)N1CCC[C@H]1C(=O)N[C@@H](Cc1ccc(N)cc1)C(=O)N[C@@H](CCCCN)C(=O)N1CCC[C@H]1C(=O)N1CCC[C@H]1C(N)=O [Peptide 12, Ac-P(j)KPP-NH2] (Ac-P[Phe(4-NH2)]KPP-NH2)
4.2 ± 0.4	CC(=O)N1CCC[C@H]1C(=O)N[C@@H](Cc1ccc([N+](=O)[O-])cc1)C(=O)N[C@@H](CCCCN)C(=O)N1CCC[C@H]1C(=O)N1CCC[C@H]1C(N)=O [Peptide 13, Ac-P(k)KPP-NH2] (Ac-P[Phe(4-NO2)]KPP-NH2)
25.4 ± 0.7	CC(=O)N1CCC[C@H]1C(=O)N[C@@H](Cc1ccc(C(F)(F)F)cc1)C(=O)N[C@@H](CCCCN)C(=O)N1CCC[C@H]1C(=O)N1CCC[C@H]1C(N)=O [Peptide 14, Ac-P(l)KPP-NH2] (Ac-P[Phe(4-CF3)]KPP-NH2)
8.4 ± 0.4	CC(=O)N1CCC[C@H]1C(=O)N[C@@H](Cc1ccc(N=[N+]=[N-])cc1)C(=O)N[C@@H](CCCCN)C(=O)N1CCC[C@H]1C(=O)N1CCC[C@H]1C(N)=O [Peptide 15, Ac-P(m)KPP-NH2] (Ac-P[Phe(4-N3)]KPP-NH2)
15.4 ± 0.4	CC(=O)N1CCC[C@H]1C(=O)N[C@H](Cc1ccccc1)C(=O)N[C@@H](CCCCN)C(=O)N1CCC[C@H]1C(=O)N1CCC[C@H]1C(N)=O [Peptide 16, Ac-P(n)KPP-NH2] (Ac-P[dF]KPP-NH2)
12.5 ± 0.9	CC(=O)N1CCC[C@H]1C(=O)N[C@@H](Cc1cccc(F)c1)C(=O)N[C@@H](CCCCN)C(=O)N1CCC[C@H]1C(=O)N1CCC[C@@H]1C(N)=O [Peptide 17, Ac-P(h)KP(o)-NH2] (Ac-P[Phe(3-F)]KP[dP]-NH2)
> 250	CC(=O)N1CCC[C@H]1C(=O)N[C@@H](Cc1cccc(F)c1)C(=O)N[C@@H](CCCCN)C(=O)N1CCC[C@H]1C(=O)N1CC=C[C@H]1C(N)=O [Peptide 18, Ac-P(h)KP(p)-NH2] (Ac-P[Phe(3-F)]KP[ΔPro]-NH2)
> 250	CC(=O)N1CCC[C@H]1C(=O)N[C@@H](Cc1cccc(F)c1)C(=O)N[C@@H](CCCCN)C(=O)N1CCC[C@H]1C(=O)N1CC[C@H]1C(N)=O [Peptide 19, Ac-P(h)KP(q)-NH2] (Ac-P[Phe(3-F)]KP[Aze]-NH2)
3.7 ± 0.4	CC(=O)N1CCC[C@H]1C(=O)N[C@@H](Cc1cccc(F)c1)C(=O)N[C@@H](CCCCN)C(=O)N1CCC[C@H]1C(=O)N1CSC[C@H]1C(N)=O [Peptide 20, Ac-P(h)KP(r)-NH2] (Ac-P[Phe(3-F)]KP[Thz]-NH2)
90.9 ± 0.7	CC(=O)N1CCC[C@H]1C(=O)N[C@@H](Cc1cccc(F)c1)C(=O)N[C@@H](CCCCN)C(=O)N1CCC[C@H]1C(=O)N1CCCC[C@H]1C(N)=O [Peptide 21, Ac-P(h)KP(s)-NH2] (Ac-P[Phe(3-F)]KP[Pip]-NH2)
31.2 ± 0.4	CC(=O)N1CCC[C@H]1C(=O)N[C@@H](Cc1cccc(F)c1)C(=O)N[C@@H](CCCCN)C(=O)N1CCC[C@H]1C(=O)N1C[C@H](F)C[C@H]1C(N)=O [Peptide 22, Ac-P(h)KP(t)-NH2] (Ac-P[Phe(3-F)]KP[Pro(trans-4-F)]-NH2)

Ki [µM]	SMILES
3.5 ± 0.4	CC(=O)N1CCC[C@H]1C(=O)N[C@@H](Cc1cccc(F)c1)C(=O)N[C@@H](CCCCN)C(=O)N1CCC[C@@H]1C(=O)N1CCC[C@H]1C(N)=O [Peptide 24, Ac-P(h)K(o)P-NH2] (Ac-P[Phe(3-F)]K[dP]P-NH2)
> 250	CC(=O)N1CCC[C@H]1C(=O)N[C@@H](Cc1cccc(F)c1)C(=O)N[C@@H](CCCCN)C(=O)N1CC=C[C@H]1C(=O)N1CCC[C@H]1C(N)=O [Peptide 25, Ac-P(h)K(p)P-NH2] (Ac-P[Phe(3-F)]K[ΔPro]P-NH2)
> 250	CC(=O)N1CCC[C@H]1C(=O)N[C@@H](Cc1cccc(F)c1)C(=O)N[C@@H](CCCCN)C(=O)N1CC[C@H]1C(=O)N1CCC[C@H]1C(N)=O [Peptide 26, Ac-P(h)K(q)P-NH2] (Ac-P[Phe(3-F)]K[Aze]P-NH2)
136 ± 11.2	CC(=O)N1CCC[C@H]1C(=O)N[C@@H](Cc1cccc(F)c1)C(=O)N[C@@H](CCCCN)C(=O)N1CCCC[C@H]1C(=O)N1CCC[C@H]1C(N)=O [Peptide 28, Ac-P(h)K(s)P-NH2] (Ac-P[Phe(3-F)]K[Pip]P-NH2)
24.6 ± 5.8	CC(=O)N1CCC[C@H]1C(=O)N[C@@H](Cc1cccc(F)c1)C(=O)N[C@@H](CCCCN)C(=O)N1C[C@H](F)C[C@H]1C(=O)N1CCC[C@H]1C(N)=O [Peptide 29, Ac-P(h)K(t)P-NH2] (Ac-P[Phe(3-F)]K[Pro(trans-4-F)]P-NH2)
4.5 ± 0.5	CC(=O)N1CCC[C@@H]1C(=O)N[C@@H](Cc1cccc(F)c1)C(=O)N[C@@H](CCCCN)C(=O)N1CCC[C@H]1C(=O)N1CCC[C@H]1C(N)=O [Peptide 31, Ac-(o) (h)KPP-NH2] (Ac-[dP][Phe(3-F)]KPP-NH2)
> 250	CC(=O)N1CC=C[C@H]1C(=O)N[C@@H](Cc1cccc(F)c1)C(=O)N[C@@H](CCCCN)C(=O)N1CCC[C@H]1C(=O)N1CCC[C@H]1C(N)=O [Peptide 32, Ac-(p) (h)KPP-NH2] (Ac-[ΔPro][Phe(3-F)]KPP-NH2)
> 250	CC(=O)N1CC[C@H]1C(=O)N[C@@H](Cc1cccc(F)c1)C(=O)N[C@@H](CCCCN)C(=O)N1CCC[C@H]1C(=O)N1CCC[C@H]1C(N)=O [Peptide 33, Ac-(q) (h)KPP-NH2] (Ac-[Aze][Phe(3-F)]KPP-NH2)
122 ± 9.8	CC(=O)N1CCCC[C@H]1C(=O)N[C@@H](Cc1cccc(F)c1)C(=O)N[C@@H](CCCCN)C(=O)N1CCC[C@H]1C(=O)N1CCC[C@H]1C(N)=O [Peptide 35, Ac-(s) (h)KPP-NH2] (Ac-[Pip][Phe(3-F)]KPP-NH2)
14.5 ± 2.9	CC(=O)N1C[C@H](F)C[C@H]1C(=O)N[C@@H](Cc1cccc(F)c1)C(=O)N[C@@H](CCCCN)C(=O)N1CCC[C@H]1C(=O)N1CCC[C@H]1C(N)=O [Peptide 36, Ac-(t) (h)KPP-NH2] (Ac-[Pro(trans-4-F)][Phe(3-F)]KPP-NH2)
21.6 ± 2.6	CC(=O)N(O)CCCC[C@H](NC(=O)[C@H](Cc1cccc(F)c1)NC(=O)[C@@H]1CSCN1C(C)=O)C(=O)N1CCC[C@H]1C(=O)N1CCC[C@H]1C(N)=O [Peptide 38, Ac-(r) (h) (v)PP-NH2] (Ac-[Thz][Phe(3-F)][X1]PP-NH2)
28.3 ± 2.8	CC(=O)CN(CCCC[C@H](NC(=O)[C@H](Cc1cccc(F)c1)NC(=O)[C@@H]1CSCN1C(C)=O)C(=O)N1CCC[C@H]1C(=O)N1CCC[C@H]1C(N)=O)C(C)=O [Peptide 39, Ac-(r) (h) (w)PP-NH2] (Ac-[Thz][Phe(3-F)][X2]PP-NH2)
51.8 ± 0.8	CC(=O)N[C@@H](CCCCN(O)C(C)=O)C(=O)N1CCC[C@H]1C(=O)N[C@@H](C)C(=O)N[C@H](C(=O)N[C@@H](CCCCN)C(N)=O)[C@@H](C)O [Peptide 40, Ac-(v)PATK-NH2] (Ac-[X1]PATK-NH2)
96.2 ± 12.6	CC(=O)CN(CCCC[C@H](NC(C)=O)C(=O)N1CCC[C@H]1C(=O)N[C@@H](C)C(=O)N[C@H](C(=O)N[C@@H](CCCCN)C(N)=O)[C@@H](C)O)C(C)=O [Peptide 41, Ac-(w)PATK-NH2] (Ac-[X2]PATK-NH2)
59.8 ± 6.5	CC(=O)N[C@@H](CCCCN)C(=O)N1CCC[C@H]1C(=O)N[C@@H](C)C(=O)N[C@H](C(=O)N[C@@H](CCCCN(O)C(C)=O)C(N)=O)[C@@H](C)O [Peptide 42, Ac-KPAT(v)-NH2] (Ac-KPAT[X1]-NH2)
72.6 ± 9.5	CC(=O)CN(CCCC[C@H](NC(=O)[C@@H](NC(=O)[C@H](C)NC(=O)[C@@H]1CCCN1C(=O)[C@H](CCCCN)NC(C)=O)[C@@H](C)O)C(N)=O)C(C)=O [Peptide 43, Ac-KPAT(w)-NH2] (Ac-KPAT[X2]-NH2)
